Data on 1 compound can be found in patent US20160022751A1, “NOVEL COMPOSITION FOR TREATING ALZHEIMER'S DISEASE AND IMPROVING COGNITIVE FUNCTION OF ALZHEIMER'S PATIENTS” (GANGNEUNG-WONJU NATIONAL UNIVERSITY INDUSTRY ACADEMY …, priority 2014, published 2016).

The test deals with Aβ42. The experiment in a line: Passive avoidance trials (PAT) in Aβ42-infused animals. To be noted: Aβ42 rats administered Rg3 (FIG. 25). Format: in vivo. As to the method: Male BALB/c mice (10 weeks old) were purchased from Samtaco (Korea), and were adapted to laboratory conditions (temperature: 20±2° C., relative humidity: 50%, light/dark cycle: 12 h) for 1 week. Five-week-old male Sprague-Dawley rats were obtained from Daehan-Biolink (Korea) for learning and memory testing. The animals (n=5/group) were maintained at a constant temperature (23±2° C.), relative humidity, 55±10%, and 12-h light/dark cycle. The animals were fed a standard rodent chow and purified water ad libitum. Lyophilized Aβ42 (0.5 mg, Bachem Torrance, USA) was resuspended in PBS (pH 7.4) by shaking for 7 days at room temperature to prepare the fibrillar-aggregated Aβ42 (fAβ42). At 10 weeks of age, mice were anesthetized, and 1 μl fAβ42 (350 μM stock concentration) was stereotaxically injected unilaterally into the parietal cortex (anterior 1.7 mm, lateral 1 mm, and ventral 1 mm to the bregma above the hippocampus within 1 min) (Mohajeri et al., J. Biol. Chem., 277: 35460-35465, 2002)
The present inventor performed learning and memory tests using rats in order to investigate whether Rg3 can ameliorate symptoms of Alzheimer's model animals in deed. […] The latency time of stay in the light room from lights-on was recorded following an electric shock (1 mA for 2 s) in the dark compartment. […] The mean time spent to escape onto the platform was recorded.

Take `CC(C)=CCC[C@](C)(O)[C@H]1CC[C@]2(C)[C@@H]1[C@H](O)C[C@@H]1[C@@]3(C)CC[C@H](O[C@@H]4O[C@H](CO)[C@@H](O)[C@H](O)[C@H]4O[C@@H]4O[C@H](CO)[C@@H](O)[C@H](O)[C@H]4O)C(C)(C)[C@@H]3CC[C@]12C` [ginsenoside Rg3]: the “learning and memory functions, passive avoidance” value is “maintained learning and memory functions at 4-5 weeks”.
